Results reported in paper PMC10489644, “In Vitro Evaluation of the Potential for Drug Interactions by Salidroside” (Nutrients, 2023).

Legend:
CYP1A2 = assay: in vitro; conditions: human; for % of Positive Control / Mean Enzyme Activity: 48 h
Protocol: (§1) The sandwich medium was removed, and the hepatocytes were treated with incubation solutions containing salidroside (1, 5, 10, and 30 µM), vehicle (0.1% DMSO), or positive inducers in triplicate for 24 h after the cultures were established. The incubation solution was aspirated and replaced with incubation solution containing the same concentrations of salidroside, vehicle, or positive inducers for an additional 24 h. The total treatment period was 48 h. After the treatment period of 48 h, the incubation solution was aspirated. Hepatocytes were washed twice with pre-warmed HBSS containing 10 mM HEPES (HBSS I) and then the remaining solution was aspirated. Hepatocytes were washed once with pre-warmed HBSS I and incubated with 140 μL of RLT (lysis buffer from RNeasy 96 Kit) supplemented with 1% β-mercaptoethanol. Plates were then stored at −70 °C in a freezer until RNA analysis. Before RNA extraction, the frozen plate was thawed, and cell lysates were transferred to 96-well plates. RNA isolation was performed using a QIAcube RNA extraction system. Reverse transcription was performed to obtain cDNA. Quantification of the selective genes by real-time quantitative polymerase chain reaction (qPCR) was performed with TaqMan universal PCR Master Mix on the Bio-rad CFX384 TouchTM Real-Time PCR System. The relative change in the mRNA level of the selected target genes induced by each test compound was expressed in relation to the vehicle control sample, and fold changes in gene expression were determined by the ΔΔCt method.
(§2) Enzyme activity (%) = PAR with compound/PAR vehicle × 100.

CYP2B6 = assay: in vitro; conditions: human; for % of Positive Control / Mean Enzyme Activity: 48 h
Protocol: as §1, §2

CYP2C9 [1] = molecular target: T1, CYP2C9 (Homo sapiens, UniProt P11712); conditions: microsomes
T1 sequence (P11712 whole entry): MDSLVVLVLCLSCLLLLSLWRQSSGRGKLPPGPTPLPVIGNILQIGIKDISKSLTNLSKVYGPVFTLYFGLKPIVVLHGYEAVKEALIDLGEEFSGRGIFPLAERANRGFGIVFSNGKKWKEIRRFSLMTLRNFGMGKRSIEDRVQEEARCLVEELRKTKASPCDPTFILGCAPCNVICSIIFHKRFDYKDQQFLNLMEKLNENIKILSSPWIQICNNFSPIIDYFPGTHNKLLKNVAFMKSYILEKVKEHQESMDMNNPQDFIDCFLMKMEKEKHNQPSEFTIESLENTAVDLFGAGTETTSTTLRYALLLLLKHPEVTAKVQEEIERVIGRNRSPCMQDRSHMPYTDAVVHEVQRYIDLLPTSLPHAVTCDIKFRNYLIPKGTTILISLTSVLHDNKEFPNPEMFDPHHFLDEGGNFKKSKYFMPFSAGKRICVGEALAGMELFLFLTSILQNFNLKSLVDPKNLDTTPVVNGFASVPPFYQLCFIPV

CYP2C19 [2] = molecular target: T2, CYP2C19 (Homo sapiens, UniProt P33261); conditions: microsomes
T2 sequence (P33261 whole entry): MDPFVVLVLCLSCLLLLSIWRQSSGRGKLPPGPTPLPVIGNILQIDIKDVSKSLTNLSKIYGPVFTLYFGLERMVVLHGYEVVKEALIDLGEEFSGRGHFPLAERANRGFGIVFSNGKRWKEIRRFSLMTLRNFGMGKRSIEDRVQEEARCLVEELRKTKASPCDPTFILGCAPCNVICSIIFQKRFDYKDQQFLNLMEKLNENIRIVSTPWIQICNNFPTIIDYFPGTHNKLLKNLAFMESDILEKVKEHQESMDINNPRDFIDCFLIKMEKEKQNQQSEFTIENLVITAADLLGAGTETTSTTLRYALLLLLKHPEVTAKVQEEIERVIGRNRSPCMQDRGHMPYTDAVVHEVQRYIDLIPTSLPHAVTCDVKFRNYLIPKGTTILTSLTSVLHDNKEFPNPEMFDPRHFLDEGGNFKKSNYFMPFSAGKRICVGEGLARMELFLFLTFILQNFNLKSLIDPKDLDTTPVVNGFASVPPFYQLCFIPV

CYP2D6 [3] = molecular target: T3, CYP2D6 (Homo sapiens, UniProt P10635); conditions: microsomes
T3 sequence (P10635 whole entry): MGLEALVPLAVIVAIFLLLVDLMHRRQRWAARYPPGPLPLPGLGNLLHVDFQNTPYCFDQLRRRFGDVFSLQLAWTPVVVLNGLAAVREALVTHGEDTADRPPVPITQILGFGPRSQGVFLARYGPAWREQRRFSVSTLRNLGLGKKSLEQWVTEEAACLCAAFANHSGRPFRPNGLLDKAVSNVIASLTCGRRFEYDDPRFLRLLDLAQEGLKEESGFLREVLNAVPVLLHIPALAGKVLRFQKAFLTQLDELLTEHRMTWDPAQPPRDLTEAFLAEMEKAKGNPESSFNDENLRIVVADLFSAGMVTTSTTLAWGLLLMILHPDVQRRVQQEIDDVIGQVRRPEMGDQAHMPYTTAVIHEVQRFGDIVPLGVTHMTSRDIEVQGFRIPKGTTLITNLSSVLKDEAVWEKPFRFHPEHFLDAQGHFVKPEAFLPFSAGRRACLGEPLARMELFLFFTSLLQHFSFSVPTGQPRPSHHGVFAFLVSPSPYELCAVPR

MAO-B = test system: MAO-B; design: method as in PMID 19168123; conditions: isolated compound at 10 µM; cited from earlier work
[4] = design: method as in PMID 35684130; conditions: cited from earlier work
CYP3A4/5 = assay: in vitro; conditions: human, microsomes
CYP2D6 [5] = molecular target: T3, CYP2D6; assay: biochemical
CYP2C8 = molecular target: T4, CYP2C8 (Homo sapiens, UniProt P10632); assay: CYP direct inhibition in human liver microsomes
T4 sequence (P10632 1-490): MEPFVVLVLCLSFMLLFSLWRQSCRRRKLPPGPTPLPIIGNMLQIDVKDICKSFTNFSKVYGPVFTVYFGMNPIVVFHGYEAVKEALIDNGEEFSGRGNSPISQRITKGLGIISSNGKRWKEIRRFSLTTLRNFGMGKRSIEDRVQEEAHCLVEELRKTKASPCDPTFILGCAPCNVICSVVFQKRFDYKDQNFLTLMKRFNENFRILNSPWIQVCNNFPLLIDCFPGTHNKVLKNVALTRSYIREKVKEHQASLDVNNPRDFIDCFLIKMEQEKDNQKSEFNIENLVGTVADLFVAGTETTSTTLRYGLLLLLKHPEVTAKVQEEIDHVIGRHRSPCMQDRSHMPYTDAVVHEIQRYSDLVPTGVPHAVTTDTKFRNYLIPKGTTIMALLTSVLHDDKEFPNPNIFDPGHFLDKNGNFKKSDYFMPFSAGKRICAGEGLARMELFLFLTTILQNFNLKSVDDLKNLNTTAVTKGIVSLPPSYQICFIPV

CYP2C9 [6] = molecular target: T1, CYP2C9; assay: Time-dependent inhibition (IC50 shift) in human liver microsomes
CYP2C19 [7] = molecular target: T2, CYP2C19; assay: as above

SMILES: OC[C@H]1O[C@@H](OCCc2ccc(O)cc2)[C@H](O)[C@@H](O)[C@@H]1O [Salidroside]
- fold induction at 48 h, 0.1 µM (CYP1A2): 0.8
- fold induction at 48 h, 1 µM (CYP1A2): 0.66
- fold induction at 48 h, 10 µM (CYP1A2): 0.76
- % of Positive Control (CYP1A2; 0.1 µM): −8%
- Mean Enzyme Activity (CYP1A2; 0.1 µM): 2.18 pmol/10^6 cells/min
- % of Positive Control (CYP1A2; 1 µM): −13%
- Mean Enzyme Activity (CYP1A2; 1 µM): 1.81 pmol/10^6 cells/min
- % of Positive Control (CYP1A2; 10 µM): −9%
- Mean Enzyme Activity (CYP1A2; 10 µM): 2.08 pmol/10^6 cells/min
- fold induction at 48 h, 0.1 µM (CYP2B6): 0.87
- fold induction at 48 h, 1 µM (CYP2B6): 0.58
- fold induction at 48 h, 10 µM (CYP2B6): 0.87
- % of Positive Control (CYP2B6; 0.1 µM): −3%
- Mean Enzyme Activity (CYP2B6; 0.1 µM): 0.77 pmol/10^6 cells/min
- % of Positive Control (CYP2B6; 1 µM): −9%
- Mean Enzyme Activity (CYP2B6; 1 µM): 0.51 pmol/10^6 cells/min
- % of Positive Control (CYP2B6; 10 µM): −3%
- Mean Enzyme Activity (CYP2B6; 10 µM): 0.76 pmol/10^6 cells/min
- IC50 Shift (CYP2C9 [1]): no shift
- IC50 Shift (CYP2C19 [2]): no shift
- IC50 Shift (CYP2D6 [3]): no shift
- inhibition of MAO-B (MAO-B): 35.8%
- genotoxicity [4]: not genotoxic
- IC50 at 10 min (CYP3A4/5): > 50 µM
- IC50 (CYP2D6 [5]): > 50 µM
- IC50 (CYP2C8): > 50 µM
- IC50 (CYP2C9 [6]): > 50 µM
- IC50 (CYP2C19 [7]): > 50 µM
